What all share (type): cell-based
Experiment [1] deals with T1, hGIPR (Homo sapiens, UniProt P48546).
T1 sequence (P48546 22-466): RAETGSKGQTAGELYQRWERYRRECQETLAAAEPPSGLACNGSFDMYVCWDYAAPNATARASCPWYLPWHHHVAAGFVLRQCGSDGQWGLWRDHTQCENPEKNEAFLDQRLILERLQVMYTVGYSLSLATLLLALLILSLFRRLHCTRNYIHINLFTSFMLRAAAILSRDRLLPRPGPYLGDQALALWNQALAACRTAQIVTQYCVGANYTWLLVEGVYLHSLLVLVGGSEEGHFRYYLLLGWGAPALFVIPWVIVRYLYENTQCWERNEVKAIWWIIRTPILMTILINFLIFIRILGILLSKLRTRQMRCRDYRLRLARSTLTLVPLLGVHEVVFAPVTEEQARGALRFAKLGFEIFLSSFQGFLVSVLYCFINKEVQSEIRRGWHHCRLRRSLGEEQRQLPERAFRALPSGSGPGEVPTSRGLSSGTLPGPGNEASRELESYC
In words: Functional cAMP activation in the presence of 0.1% casein (no HSA). The settings on record: in the presence of 0.1% casein (no HSA); geometric mean; read-out: Relative cAMP EC50, hGIPR.

For experiment [2], the target named is human GcgR (Homo sapiens, UniProt P47871). In words: Functional cAMP activity in the presence of 1% HSA. The settings on record: read-out: cAMP Rel EC50, hGcgR.
Experiment [3] has as its target hGcgR (Homo sapiens, UniProt P47871). In words: Functional cAMP activation in the presence of 0.1% casein (no HSA). The note with it: in the presence of 0.1% casein (no HSA); geometric mean; read-out: Relative cAMP EC50, hGcgR.
Experiment [4] addresses T1, hGIPR. Nature of the experiment: Functional cAMP activity in the presence of 1% HSA. The settings on record: read-out: cAMP Rel EC50, hGIPR.
For experiment [5], the target named is T2, hGLP-1R (Homo sapiens, UniProt P43220). In words: Functional cAMP activity in the presence of 1% HSA. The settings on record: read-out: cAMP Rel EC50, hGLP-1R.
Experiment [6] deals with T2, hGLP-1R. Nature of the experiment: Functional cAMP activation in the presence of 0.1% casein (no HSA). The note with it: in the presence of 0.1% casein (no HSA); geometric mean; read-out: Relative cAMP EC50, hGLP-1R.

Here are results for 19 substances from patent US20240270821A1, “GIP/GLP1/GCG TRI-RECEPTOR AGONISTS AND USES THEREOF” (priority 2023, published 2024).

Starred links: 1 amine or outer side, 2 acyl side, 3 side chain; linkers in the order of their positions; H or OH if unused. Non-standard residues stand in square brackets, D forms with d. Groups on a side chain read outwards from the residue. *: point of attachment. C20 diacid = O=C(O)CCCCCCCCCCCCCCCCCCC(=O)*; C18 diacid = O=C(O)CCCCCCCCCCCCCCCCC(=O)*; γGlu = O=C(O)[C@H](CCC(=O)[*:2])N[*:1]; αMe4Pal = C[C@](N)(Cc1ccncc1)C(=O)O; 4Pal = N[C@@H](Cc1ccncc1)C(=O)O; αMeL = CC(C)C[C@](C)(N)C(=O)O; AEEA = NCCOCCOCC(=O)O; Aib = CC(C)(N)C(=O)O
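Throughout, for Relative cAMP EC50, hGIPR: intracellular cAMP rise after 30 min at 37 °C read by HTRF against a standard curve, scaled between buffer alone (0%) and top control ligand concentration (100%), four-parameter fit.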
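Throughout, for Relative cAMP EC50, hGLP-1R: intracellular cAMP rise after 30 min at 37 °C read by HTRF, normalized between buffer only (0%) and maximal control ligand (100%), four-parameter variable-slope fit.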
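Throughout, for Relative cAMP EC50, hGcgR: intracellular cAMP rise after 30 min at 37 °C, read by HTRF against a cAMP standard curve, scaled from buffer only (0%) to maximal control ligand response (100%).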

Sequence of hGcgR (P47871 26-477): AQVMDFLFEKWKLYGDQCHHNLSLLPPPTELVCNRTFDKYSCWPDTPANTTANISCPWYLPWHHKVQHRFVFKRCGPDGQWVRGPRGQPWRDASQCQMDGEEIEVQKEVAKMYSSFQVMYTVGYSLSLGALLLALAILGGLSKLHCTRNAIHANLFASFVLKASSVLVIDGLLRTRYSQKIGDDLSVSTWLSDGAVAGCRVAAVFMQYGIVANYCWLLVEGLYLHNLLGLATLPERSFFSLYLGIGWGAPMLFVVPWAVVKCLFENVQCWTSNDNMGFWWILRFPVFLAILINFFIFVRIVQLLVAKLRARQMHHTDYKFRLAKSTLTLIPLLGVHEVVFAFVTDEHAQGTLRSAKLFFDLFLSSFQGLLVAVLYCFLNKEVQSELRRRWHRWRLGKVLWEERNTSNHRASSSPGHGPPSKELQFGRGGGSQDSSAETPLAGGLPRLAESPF
Sequence of human GcgR (P47871 26-477): as above
T2 sequence (P43220 24-463): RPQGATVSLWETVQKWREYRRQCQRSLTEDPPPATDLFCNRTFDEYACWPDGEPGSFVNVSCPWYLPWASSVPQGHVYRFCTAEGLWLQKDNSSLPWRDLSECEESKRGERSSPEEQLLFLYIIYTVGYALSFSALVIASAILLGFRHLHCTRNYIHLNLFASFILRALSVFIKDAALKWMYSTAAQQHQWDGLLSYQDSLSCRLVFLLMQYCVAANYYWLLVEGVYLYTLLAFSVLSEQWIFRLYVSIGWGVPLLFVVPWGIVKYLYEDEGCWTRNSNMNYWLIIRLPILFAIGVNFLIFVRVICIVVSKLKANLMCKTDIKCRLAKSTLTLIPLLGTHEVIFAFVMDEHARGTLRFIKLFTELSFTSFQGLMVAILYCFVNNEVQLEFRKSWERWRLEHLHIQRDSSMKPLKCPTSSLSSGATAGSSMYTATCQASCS

As for “H-Y[Aib]QGTFTSDYSK[αMeL]LDKK([AEEA-γGlu-C20 diacid])AQQAFIEYLLAGGPSSGEPPPSGE-NH2 [Example 344]”, the EC50 (in general, the concentration needed to bring the measured effect to its halfway point) in experiment [1] was 0.406 nM; in experiment [2], 1440 nM; in experiment [3], 9.05 nM; in experiment [4] it was 70.7 nM; in experiment [5] it was 523 nM; in experiment [6], 2.56 nM.
In the case of “H-Y[Aib]QGTFTSDYSK[αMeL]LDKK([AEEA-γGlu-C20 diacid])AQQAFIQWLIEGGPSSGEPPPSEG-NH2 [Example 314]”, the concentration for a half-maximal effect (EC50) in experiment [1] came to 0.345 nM; in experiment [2], 1030 nM; in experiment [3] it was 3.7 nM; in experiment [4], 65.9 nM; in experiment [5] it was 100 nM; in experiment [6], 0.274 nM.
With “H-Y[Aib]QGTFTSDYSK[αMeL]LDKK([AEEA-γGlu-C20 diacid])AQQAFVQWLIE[dA]GPSSGEPPPSEG-NH2 [Example 342]”, the EC50 in experiment [1] was 0.347 nM; in experiment [2], 2130 nM; in experiment [3], 10.2 nM; in experiment [4], 71.3 nM; in experiment [5], 62 nM; in experiment [6], 0.419 nM.
For “H-Y[Aib]QGTFTSDYSK[αMeL]LDKK([AEEA-γGlu-C20 diacid])AQ[Aib]AFVQWLLEGGPSSGEPPPSEG-NH2 [Example 343]”, the EC50 in experiment [1] worked out at 0.184 nM; in experiment [2] it was 475 nM; in experiment [3] it was 6.83 nM; in experiment [4], 16.7 nM; in experiment [5] it was 178 nM; in experiment [6] it was 1.31 nM.
Take “H-Y[Aib]QGTFTSD[4Pal]SK[αMeL]LDKK([AEEA-γGlu-C18 diacid])AQ[Aib]AFIEYLIA[Aib]GESSGEPPPSGS-NH2 [Example 287]”: the 50% effective concentration (EC50) in experiment [1] was 0.0633 nM; in experiment [2], 291 nM; in experiment [3], 2.53 nM; in experiment [4], 9.94 nM; in experiment [5], 562 nM; in experiment [6], 4.25 nM.
In the case of “H-Y[Aib]QGTFTSD[4Pal]SK[αMeL]LDKK([AEEA-γGlu-C18 diacid])AQ[Aib]AFIEYLIEGGPSSGAPPPSGS-NH2 [Example 908]”, the EC50 in experiment [1] turned out to be 0.246 nM; in experiment [2] it was 980 nM; in experiment [3] it was 8.11 nM; in experiment [4] it was 26.7 nM; in experiment [5] it was 174 nM; in experiment [6], 1.2 nM.
Regarding “H-Y[Aib]QGTFTSD[4Pal]SK[αMeL]LDKK([AEEA-γGlu-C18 diacid])AQ[Aib]AFIEYLIE[Aib]GPSSGAPPPSGS-NH2 [Example 801]”, the concentration giving a half-maximal response (EC50) in experiment [1] amounted to 0.147 nM; in experiment [2], 1200 nM; in experiment [3], 5.51 nM; in experiment [4], 18.1 nM; in experiment [5], 133 nM; in experiment [6], 0.938 nM.
As to “H-Y[Aib]QGTFTSD[4Pal]SK[αMeL]LDKK([AEEA-γGlu-C18 diacid])AQ[Aib]AFIEYLIE[Aib]GPSSGAPPPSGSE-NH2 [Example 901]”, the 50% effective concentration (EC50) in experiment [1] was 0.17 nM; in experiment [2], 1150 nM; in experiment [3], 9.09 nM; in experiment [4], 34 nM; in experiment [5] it was 193 nM; in experiment [6], 1.26 nM.
Take “H-Y[Aib]QGTFTSD[4Pal]SK[αMeL]LDKK([AEEA-γGlu-C18 diacid])AQ[Aib]AFIEYLIE[Aib]GPSSGAPPPSGSEE-NH2 [Example 902]”: the EC50 is 0.19 nM in experiment [1]; 1360 nM in experiment [2]; 15.9 nM in experiment [3]; 28.5 nM in experiment [4]; 232 nM in experiment [5]; 2.58 nM in experiment [6].
Regarding “H-Y[Aib]QGTFTSD[4Pal]SK[αMeL]LDKK([AEEA-γGlu-C18 diacid])AQ[Aib]AFIEYLIE[Aib]GPSSGAPPPSGSEEE-NH2 [Example 903]”, the concentration giving a half-maximal response (EC50) in experiment [1] was 0.277 nM; in experiment [2], 1630 nM; in experiment [3] it was 12.9 nM; in experiment [4] it was 31.2 nM; in experiment [5] it was 387 nM; in experiment [6] it was 2.7 nM.
On to “H-Y[Aib]QGTFTSD[4Pal]SK[αMeL]LDKK([AEEA-γGlu-C18 diacid])AQ[Aib]AFIEYLIE[dA]GESSGEPPPSGS-NH2 [Example 284]”, for which the EC50 in experiment [1] turned out to be 0.347 nM; in experiment [2] it was 1530 nM; in experiment [3], 9.21 nM; in experiment [4], 59.8 nM; in experiment [5], 271 nM; in experiment [6], 1.54 nM.
For the substance “H-Y[Aib]QGTFTSD[4Pal]SK[αMeL]LDKK([AEEA-γGlu-C18 diacid])AQ[Aib]AFIE[αMe4Pal]LIE[Aib]GPSSGAPPPSGS-NH2 [Example 914]”, the EC50 was found to be 0.0582 nM in experiment [1]; 983 nM in experiment [2]; 10.6 nM in experiment [3]; 5.94 nM in experiment [4]; 91.7 nM in experiment [5]; 0.888 nM in experiment [6].
Regarding “H-Y[Aib]QGTFTSD[4Pal]SK[αMeL]LDKK([AEEA-γGlu-C18 diacid])AQ[αMe4Pal]AFIEYLIE[Aib]GPSSGAPPPSGS-NH2 [Example 915]”, the EC50 stood at 0.0988 nM in experiment [1]; 174 nM in experiment [2]; 0.882 nM in experiment [3]; 15.3 nM in experiment [4]; 226 nM in experiment [5]; 1.5 nM in experiment [6].
“H-Y[Aib]QGTFTSD[4Pal]SK[αMeL]LDKK([AEEA-γGlu-C18 diacid])AQ[αMe4Pal]AFIE[αMe4Pal]LIE[Aib]GPSSGAPPPSGS-NH2 [Example 916]”: the EC50 in experiment [1] is 0.0715 nM; in experiment [2] it was 158 nM; in experiment [3] it was 1.09 nM; in experiment [4], 4.78 nM; in experiment [5] it was 166 nM; in experiment [6], 1.38 nM.
For “H-Y[Aib]QGTFTSD[4Pal]SK[αMeL]LDKK([γGlu-γGlu-C18 diacid])AQ[Aib]AFIEYLIE[Aib]GPSSGAPPPSGS-NH2 [Example 907]”, the EC50 was determined as 0.103 nM in experiment [1]; 1210 nM in experiment [2]; 5.79 nM in experiment [3]; 8.86 nM in experiment [4]; 123 nM in experiment [5]; 1.15 nM in experiment [6].
For the substance “H-Y[Aib]QGTFTSD[4Pal]SK[αMeL]LDKK([γGlu-γGlu-C18 diacid])AQ[Aib]AFIEYLIE[Aib]GPSSGAPPPSGSE-NH2 [Example 904]”, the EC50 in experiment [1] was 0.194 nM; in experiment [2], 1330 nM; in experiment [3], 9.88 nM; in experiment [4], 15 nM; in experiment [5], 198 nM; in experiment [6], 1.94 nM.
For the substance “H-Y[Aib]QGTFTSD[4Pal]SK[αMeL]LDKK([γGlu-γGlu-C18 diacid])AQ[Aib]AFIEYLIE[Aib]GPSSGAPPPSGSEE-NH2 [Example 905]”, the EC50 in experiment [1] was determined as 0.217 nM; in experiment [2], 1390 nM; in experiment [3] it was 12.3 nM; in experiment [4], 10.4 nM; in experiment [5], 215 nM; in experiment [6], 2.52 nM.
Take “H-Y[Aib]QGTFTSD[4Pal]SK[αMeL]LDKK([γGlu-γGlu-C18 diacid])AQ[Aib]AFIEYLIE[Aib]GPSSGAPPPSGSEEE-NH2 [Example 906]”: the concentration giving a half-maximal response (EC50) in experiment [1] stood at 0.212 nM; in experiment [2] it was 1170 nM; in experiment [3], 14.7 nM; in experiment [4], 15.4 nM; in experiment [5], 236 nM; in experiment [6] it was 2.48 nM.
With “H-Y[Aib]QGTFTSD[4Pal]SQ[αMeL]LDKK([AEEA-AEEA-γGlu-C18 diacid])AQ[αMe4Pal]AFIEYLIE[Aib]GPSSGAPPPSGS-NH2 [Example 816]”, the EC50 in experiment [1] is 0.297 nM; in experiment [2], 1100 nM; in experiment [3] it was 6.57 nM; in experiment [4] it was 15.9 nM; in experiment [5] it was 310 nM; in experiment [6], 2.69 nM.
